System: PBMCs and HCV peptide-specific T cell lines from HCV-infected subjects
Assay type: cell-based, human

| Substance | response to positive control | T cell response to peptide, in words |
| --- | --- | --- |
| phytohemagglutinin | uniformly positive |  |
| HSKRKCDEL |  | no detectable response |
